Assay [1] deals with HUVEC cells. Put plainly: EF-induced elongation of endothelial cells (long:short axis ratio). Type of assay: cell-based, human. As to conditions: for long:short axis ratio in EF-treated cells: inhibitor present during EF. The protocol:
HUVEC cells were seeded in a trough formed by two parallel (1 cm apart) strips of glass coverslip (No. 1, length of 22 mm) fixed to the base of the dish with silicone grease. Scratch lines were made perpendicular to the long axis of the chamber with a fine sterile needle and used as reference marks for directed cell migration. Cells were incubated for 24-48 hours (37° C., 5% CO2) before a roof coverslip was applied and sealed with silicone grease. The final dimensions of the chamber, through which current was passed, were 22×10×0.2 mm. Agar-salt bridges not less than 15 cm long were used to connect silver/silver-chloride electrodes in beakers of Steinberg's solution (58 mM NaCl, 0.67 mM KCl, 0.44 mM Ca(NO3)2, 1.3 mM MgSO4, 4.6 mM Trizma base, pH 7.8-8.0), to pools of excess culture medium at either side of the chamber. Field strengths were measured directly at the beginning of, the end of and during each experiment. No fluctuations in field strength were observed. […] (50 μM), the Rho kinase inhibitor Y27632 (50 μM), both Akt and Rho kinase inhibitors (10 μM each) or latrunculin (50 nM) for 1 hour before EF stimulation. The same concentration of drug was present during EF exposure in a CO2 incubator.
A series of images was taken with an image analyser immediately before EF exposure and at 4, 8 and 24 hours of EF exposure. Cell orientation was quantified as an orientation index (Oi), which is defined as Oi=cos 2(α), where a is the angle formed by the long axis of a cell with a line drawn perpendicular to the field lines. A cell with its long axis parallel to the vector of the EF will have an Oi of −1, and a cell with its long axis exactly perpendicular to the EF vector will have an Oi of +1. […] The significance of this two-dimensional orientation distribution against randomness was calculated using Rayleigh's distribution. A long:short axis ratio was calculated for assessment of elongation.
HUVEC cells elongated dramatically in an EF. […] We quantified the elongation of the cells using a long:short axis ratio. […]

For assay [2], the system named is HUVEC cells. The assay can be described thus: EF-induced reorientation of endothelial cells (orientation index Oi). In kind it is cell-based, human.
Method: A series of images was taken with an image analyser immediately before EF exposure and at 4, 8 and 24 hours of EF exposure. Cell orientation was quantified as an orientation index (Oi), which is defined as Oi=cos 2(α), where a is the angle formed by the long axis of a cell with a line drawn perpendicular to the field lines. A cell with its long axis parallel to the vector of the EF will have an Oi of −1, and a cell with its long axis exactly perpendicular to the EF vector will have an Oi of +1. A randomly oriented population of cells will have an average Oi {defined as [Σn cos 2(α)]÷n} of 0. The significance of this two-dimensional orientation distribution against randomness was calculated using Rayleigh's distribution. A long:short axis ratio was calculated for assessment of elongation.
Cell alignment was quantified using an orientation index Oi=cos 2(α), where α is the angle formed between the long axis of a cell and a line drawn perpendicular to the field lines. In cells oriented perpendicular to the field vector, the Oi is +1, cells parallel to the field vector give an Oi of −1 and random orientation gives an Oi of 0.
In assay [3] the test system is HaCaT human keratinocytes. The assay can be described thus: scratch assay, keratinocyte migration (culture inserts, time-lapse microscopy). Type of assay: cell-based.

Like-named read-outs stand apart in the source and are kept apart here.

In the case of “1-L-6-hydroxymethyl-chiro-inositol 2-[(R)-2-O-methyl-3-O-octadecylcarbonate] [Akt inhibitor]”, in the assay with HUVEC cells [1], the “long:short axis ratio in EF-treated cells” value is “significantly decreased the long:short axis ratio”. Also, the orientation response entry in the assay on HUVEC cells [2] (inhibitor 50 μM, 1 hour before and during EF) is “significantly decreased the orientation response”.

As to `COc1cc([C@@H]2c3cc4c(cc3[C@H](O)[C@H]3COC(=O)[C@@H]23)OCO4)cc(OC)c1OC` [IGF-1R inhibitor, picropodophyllin], the “increased keratinocyte migration observed with LLEC, with IGF-1R inhibitor” value in assay [3] (50 nM picropodophyllin just prior to scratch assay) was “attenuated the increased keratinocyte migration”.

Regarding `C/C1=C/C(=O)O[C@@H]2C[C@@H](CC[C@H](C)/C=C\C=C\CC1)O[C@@](O)([C@@H]1CSC(=O)N1)C2` [Latrunculin A], the EF-induced elongation response result in the assay on HUVEC cells [1] (latrunculin 50 nM) was “completely abolished”. In the assay with HUVEC cells [2] (latrunculin 50 nM, 1 hour before and during EF), the orientation response entry is listed as “suppressed the orientation response significantly”.

In the case of `CC(=O)N[C@@H](CS)C(=O)O` [N-Acetyl Cysteine], the “increased migration observed with LLEC, with N-Acetyl Cysteine” value in assay [3] (5 mM, 1 h pretreatment before scratch assay) is recorded as “failed to reproduce the increased migration”.

As for `N#CC(=C(/N)Sc1ccccc1N)/C(C#N)=C(\N)Sc1ccccc1N` [U0126], the orientation response result in the assay on HUVEC cells [2] is given as “decreased the orientation to a similar extent”.

Turning to `C[C@@H](N)[C@H]1CC[C@H](C(=O)Nc2ccncc2)CC1` [Y27632], in the assay with HUVEC cells [1], the “long:short axis ratio in EF-treated cells” value is reported as “significantly decreased the long:short axis ratio”. In addition, the “Oi (orientation index)” value with HUVEC cells [2] (value in the sentence on U0126 (50 μM)) was 0.33±0.03.

(Values after patent publication US11253015B2, “Methods and devices for preventing viral transmission” (priority 2020, dated 2022).)
